As a reminder, the inhibition is the percentage by which the read-out fell short of the control. Broadly, the IC50 is the concentration that inhibits the measured activity by half.

We go through four compounds from patent US8658655B2, “Inhibition of activated cdc42-associated kinase 1” (Fox Chase Cancer Center, priority 2011, dated 2014).

Assay [1] concerns the target T1, IKK-2 (Homo sapiens, UniProt O14920).
T1 sequence (O14920 1-756): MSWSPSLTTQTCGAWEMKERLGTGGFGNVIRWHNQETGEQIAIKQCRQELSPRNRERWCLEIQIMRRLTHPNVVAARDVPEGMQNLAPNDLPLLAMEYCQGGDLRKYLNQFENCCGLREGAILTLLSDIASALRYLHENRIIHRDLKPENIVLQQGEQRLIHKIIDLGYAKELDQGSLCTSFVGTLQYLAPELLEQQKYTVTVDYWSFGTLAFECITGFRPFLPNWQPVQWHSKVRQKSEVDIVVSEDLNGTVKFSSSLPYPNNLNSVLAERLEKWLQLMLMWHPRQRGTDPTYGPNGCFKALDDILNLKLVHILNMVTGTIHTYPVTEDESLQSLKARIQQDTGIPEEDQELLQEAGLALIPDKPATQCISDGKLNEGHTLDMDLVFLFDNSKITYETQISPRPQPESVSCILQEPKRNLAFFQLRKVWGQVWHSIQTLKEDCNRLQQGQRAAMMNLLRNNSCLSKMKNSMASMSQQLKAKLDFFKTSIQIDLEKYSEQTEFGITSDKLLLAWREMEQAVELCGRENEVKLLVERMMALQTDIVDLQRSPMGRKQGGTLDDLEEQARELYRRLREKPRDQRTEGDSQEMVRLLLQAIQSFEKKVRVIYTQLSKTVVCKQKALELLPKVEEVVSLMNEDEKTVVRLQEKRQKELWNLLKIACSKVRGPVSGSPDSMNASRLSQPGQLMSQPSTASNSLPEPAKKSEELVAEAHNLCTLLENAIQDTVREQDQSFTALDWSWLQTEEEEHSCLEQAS
The experiment in a line: Kinase panel screen at 500 nM: IKK-2. The conditions noted are these: 500 nM compound, 10 μM ATP. Format: biochemical. From the text:
(§1) To directly test the kinase selectivity of a large number of established kinase inhibitors, high throughput kinase assays were employed against a panel of ^˜300 recombinant human protein kinases. An economical method based on conventional filter-binding assays was used at a nanoliter scale using radiolabeled ATP that directly measures kinase catalytic activity toward a polypeptide and/or protein substrate. […] The library of inhibitors comprises 160 pure compounds known to inhibit kinases representing all major protein kinase families, as well as a limited number of compounds that were not developed to target protein kinases (FIG. 1A).
(§2) The kinase panel tested represents all major human protein kinase. For simplicity, all compounds were tested at a concentration of 0.5 μM in the presence of 10 μM ATP.
(§3) Each kinase-inhibitor pair was tested in duplicate and results were expressed as percent remaining kinase activity compared to solvent (DMSO) control reactions. Disparate replicates were eliminated from the analysis.
(§4) As described above, a large-scale parallel screening of a collection of 160 known kinase inhibitors was conducted against a panel of 294-300 recombinant human protein kinases. Goals included the identification of novel inhibitor scaffolds for new kinase targets and the revelation of the target specificities of this panel of research compounds. […]

Assay [2] concerns the target T2, FLT3 (Homo sapiens, UniProt P36888).
T2 sequence (P36888 27-993): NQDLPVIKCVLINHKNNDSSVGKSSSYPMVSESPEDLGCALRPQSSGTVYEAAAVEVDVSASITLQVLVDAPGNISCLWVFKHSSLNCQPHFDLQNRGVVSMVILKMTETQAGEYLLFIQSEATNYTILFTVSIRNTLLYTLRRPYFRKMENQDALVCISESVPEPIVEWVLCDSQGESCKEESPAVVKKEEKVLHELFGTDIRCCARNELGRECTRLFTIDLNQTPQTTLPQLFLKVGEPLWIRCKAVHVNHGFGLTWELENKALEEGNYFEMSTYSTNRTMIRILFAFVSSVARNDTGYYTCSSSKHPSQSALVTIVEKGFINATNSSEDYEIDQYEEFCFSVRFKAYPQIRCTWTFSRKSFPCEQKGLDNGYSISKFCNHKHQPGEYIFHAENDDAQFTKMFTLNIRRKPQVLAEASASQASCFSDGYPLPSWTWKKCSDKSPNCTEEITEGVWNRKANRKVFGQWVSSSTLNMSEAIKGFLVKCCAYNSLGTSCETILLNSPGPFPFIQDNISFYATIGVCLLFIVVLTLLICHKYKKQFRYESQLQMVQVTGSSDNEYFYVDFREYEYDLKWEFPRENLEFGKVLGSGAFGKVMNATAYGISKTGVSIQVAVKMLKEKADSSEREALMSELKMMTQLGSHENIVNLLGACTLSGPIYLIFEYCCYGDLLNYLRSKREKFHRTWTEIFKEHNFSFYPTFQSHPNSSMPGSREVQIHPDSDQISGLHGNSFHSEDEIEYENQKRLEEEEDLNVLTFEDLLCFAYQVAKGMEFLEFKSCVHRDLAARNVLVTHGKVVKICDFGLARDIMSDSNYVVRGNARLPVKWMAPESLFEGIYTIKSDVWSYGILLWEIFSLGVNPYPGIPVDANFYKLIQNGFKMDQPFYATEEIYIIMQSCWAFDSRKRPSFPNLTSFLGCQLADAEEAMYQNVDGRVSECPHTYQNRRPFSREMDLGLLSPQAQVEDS
The assay is described as follows: Kinase panel screen at 500 nM: FLT3. The assay is classed as biochemical. The conditions noted are these: 500 nM compound, 10 μM ATP. From the text:
(§5) Disparate replicates were eliminated from the analysis.

Assay [3] deals with JAK1/2. The experiment in a line: Kinase panel screen at 500 nM: JAK1/2. Format: biochemical, human. Conditions: 500 nM compound, 10 μM ATP.
Description: as §1, §2, §3, §4

Assay [4] concerns the target RET (Homo sapiens, UniProt P07949). The experiment in a line: Kinase panel screen at 500 nM: RET. Conditions: 500 nM compound, 10 μM ATP. Format: biochemical.
Description: as §5

Assay [5] has as its target Tyk2 (Homo sapiens, UniProt P29597). The assay is described as follows: Kinase panel screen at 500 nM: Tyk2. Format: biochemical. The conditions noted are these: 500 nM compound, 10 μM ATP.
Description: as §5

The target of assay [6] is T3, Ack1 (Homo sapiens, UniProt Q07912). The experiment in a line: Kinase panel screen at 500 nM: Ack1. The conditions noted are these: 500 nM compound, 10 μM ATP; for inhibition at 0.5 µM: duplicate, read-out: inhibition of Ack1 catalytic activity. More on the design: only the kinase domain of Ack1 and a limited additional region C-terminal (amino acids 110-476). Format: biochemical.
Target sequence in this assay (Q07912 110-476): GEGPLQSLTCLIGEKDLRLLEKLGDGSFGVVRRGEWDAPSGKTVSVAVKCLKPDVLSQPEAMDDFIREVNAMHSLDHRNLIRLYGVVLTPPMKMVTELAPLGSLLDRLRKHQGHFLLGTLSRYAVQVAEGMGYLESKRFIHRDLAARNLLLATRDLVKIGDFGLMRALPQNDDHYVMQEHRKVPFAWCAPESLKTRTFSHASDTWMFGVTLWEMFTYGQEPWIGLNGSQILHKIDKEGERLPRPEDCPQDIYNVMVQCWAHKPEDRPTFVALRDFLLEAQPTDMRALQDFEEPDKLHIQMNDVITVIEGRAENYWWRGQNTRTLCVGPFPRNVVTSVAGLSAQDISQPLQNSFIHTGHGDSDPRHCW
Description: Each inhibitor was tested in duplicate at 500 nM against each kinase using radiolabeled ATP (10 μM total ATP) and a peptide or protein substrate.

In assay [7] the target is Aurora B (Homo sapiens, UniProt Q96GD4). The assay is described as follows: Kinase panel screen at 500 nM: Aurora B. Format: biochemical. Conditions: 500 nM compound, 10 μM ATP.
Chain of Aurora B (Q96GD4 whole entry): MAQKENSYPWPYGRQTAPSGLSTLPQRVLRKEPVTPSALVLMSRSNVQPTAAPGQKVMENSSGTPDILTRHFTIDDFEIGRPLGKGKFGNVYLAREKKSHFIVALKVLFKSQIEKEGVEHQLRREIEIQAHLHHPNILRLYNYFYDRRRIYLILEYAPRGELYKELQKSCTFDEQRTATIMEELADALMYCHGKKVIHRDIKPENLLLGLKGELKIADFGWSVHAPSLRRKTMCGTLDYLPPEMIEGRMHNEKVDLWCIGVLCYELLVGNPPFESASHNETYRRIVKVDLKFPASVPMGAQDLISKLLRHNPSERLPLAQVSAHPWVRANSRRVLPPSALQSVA
Description: as §5

In assay [8] the target is non-receptor tyrosine kinase BRK (Homo sapiens, UniProt Q13882). The assay is described as follows: Kinase panel screen at 500 nM: BRK. Format: biochemical. Conditions: 500 nM compound, 10 μM ATP.
Chain of non-receptor tyrosine kinase BRK (Q13882 whole entry): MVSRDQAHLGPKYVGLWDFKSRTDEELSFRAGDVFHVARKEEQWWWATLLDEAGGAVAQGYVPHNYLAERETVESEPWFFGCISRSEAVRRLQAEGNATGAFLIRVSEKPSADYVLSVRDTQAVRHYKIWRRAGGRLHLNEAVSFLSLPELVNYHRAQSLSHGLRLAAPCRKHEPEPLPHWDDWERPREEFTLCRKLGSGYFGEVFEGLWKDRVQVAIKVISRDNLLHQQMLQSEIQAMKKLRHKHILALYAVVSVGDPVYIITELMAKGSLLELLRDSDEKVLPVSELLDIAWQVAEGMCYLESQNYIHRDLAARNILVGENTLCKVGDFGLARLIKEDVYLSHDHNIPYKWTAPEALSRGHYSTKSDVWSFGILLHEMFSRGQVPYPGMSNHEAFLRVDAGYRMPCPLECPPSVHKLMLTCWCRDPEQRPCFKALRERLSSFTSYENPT
Description: as §5

Assay [9] deals with T3, Ack1. The assay is described as follows: Ack1 dose-response radiometric peptide kinase assay. The assay is classed as biochemical. How it is done:
40 ng of recombinant Ack1 was incubated with saturating quantities of peptide substrate ([…] (SEQ ID NO:1) and in the presence of a compound in Ack1 kinase buffer (20 mM Tris pH 7.4, 10 mM MgCl2, 0.1 mM NaVO4, 0.5 mM dithiothreitol). [^32P]-γ-ATP was added in a total concentration of 10 μM ATP to initiate the reaction. Following 30 minute incubation at 30° C., phosphorylated peptide substrate was captured by spotting the reaction on P81 cationic filter paper and unincorporated [^32P]-γ-ATP was removed by washing in a solution of phosphoric acid. Phosphorylated peptide was then quantified by autoradiography or by Phosphorlmager analysis or by scintillation counting.
(§6) Thus, this Example proposed derivatives of compound 1 that inhibit Ack1 in the cellular context while retaining its target specificity.
Target sequence in this assay (Q07912 whole entry, the tested form may be a part): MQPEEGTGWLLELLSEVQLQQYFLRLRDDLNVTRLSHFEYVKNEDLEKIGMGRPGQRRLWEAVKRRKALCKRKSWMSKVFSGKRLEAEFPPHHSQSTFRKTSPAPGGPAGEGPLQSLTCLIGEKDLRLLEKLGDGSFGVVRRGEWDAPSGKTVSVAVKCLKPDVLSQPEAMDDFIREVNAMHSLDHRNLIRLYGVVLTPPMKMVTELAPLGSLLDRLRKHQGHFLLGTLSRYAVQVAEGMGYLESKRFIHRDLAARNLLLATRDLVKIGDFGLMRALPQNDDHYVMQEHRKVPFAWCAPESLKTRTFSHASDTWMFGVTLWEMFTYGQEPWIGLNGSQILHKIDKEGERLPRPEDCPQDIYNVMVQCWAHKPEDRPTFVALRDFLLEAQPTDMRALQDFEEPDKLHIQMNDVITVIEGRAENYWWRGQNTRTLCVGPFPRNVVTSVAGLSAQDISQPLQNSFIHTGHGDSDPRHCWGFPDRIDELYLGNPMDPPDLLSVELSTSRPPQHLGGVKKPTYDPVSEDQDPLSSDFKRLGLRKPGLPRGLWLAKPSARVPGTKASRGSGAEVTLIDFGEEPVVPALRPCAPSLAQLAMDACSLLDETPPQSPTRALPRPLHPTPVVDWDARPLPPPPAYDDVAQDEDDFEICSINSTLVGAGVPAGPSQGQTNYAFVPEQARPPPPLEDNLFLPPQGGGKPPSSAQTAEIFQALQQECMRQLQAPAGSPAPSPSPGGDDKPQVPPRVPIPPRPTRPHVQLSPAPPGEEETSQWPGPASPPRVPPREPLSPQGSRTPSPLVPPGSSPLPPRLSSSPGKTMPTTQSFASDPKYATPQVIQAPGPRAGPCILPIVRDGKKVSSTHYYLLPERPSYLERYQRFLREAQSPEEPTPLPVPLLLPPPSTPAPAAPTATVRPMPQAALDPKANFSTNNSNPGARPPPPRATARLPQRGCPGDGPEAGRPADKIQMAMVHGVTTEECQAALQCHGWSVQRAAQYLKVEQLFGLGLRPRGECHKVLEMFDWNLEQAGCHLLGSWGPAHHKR

Assay [10] has as its system Ack1 autophosphorylation (Tyr284). The assay is described as follows: Ack1 autophosphorylation in HEK293 cells (Western blot phospho-Ack1). Format: cell-based. The conditions noted are these: HEK293 cells expressing Ack1.
Description: as §6
(In general: In western blotting, separated proteins are transferred to a membrane and probed.)

The test system of assay [11] is panel of 300 protein kinases. The assay is described as follows: Kinase selectivity across panel of 300 kinases (Gini coefficient). Format: biochemical, human. Conditions: 500 nM. The protocol: as §5
The data were analyzed for compounds that inhibit Ack1. […] Inhibitor selectivity was quantitatively assessed using the Gini coefficient (Piotr P et al. (2007) J. Med. Chem., 50:5773-9; and, Lynette A et al. (2009) J. Chem. Biol. 2:131-51).

In assay [12] the test system is Aurora. The conditions noted are these: Heron et al. 2006; cited from earlier work.
Assay [13] deals with Aurora. The conditions noted are these: Heron et al. 2006; cited from earlier work. This is another data set of the same source.

Entries after “also recorded” stand apart in the source; their conditions may differ.

Chain of Tyk2 (P29597 whole entry): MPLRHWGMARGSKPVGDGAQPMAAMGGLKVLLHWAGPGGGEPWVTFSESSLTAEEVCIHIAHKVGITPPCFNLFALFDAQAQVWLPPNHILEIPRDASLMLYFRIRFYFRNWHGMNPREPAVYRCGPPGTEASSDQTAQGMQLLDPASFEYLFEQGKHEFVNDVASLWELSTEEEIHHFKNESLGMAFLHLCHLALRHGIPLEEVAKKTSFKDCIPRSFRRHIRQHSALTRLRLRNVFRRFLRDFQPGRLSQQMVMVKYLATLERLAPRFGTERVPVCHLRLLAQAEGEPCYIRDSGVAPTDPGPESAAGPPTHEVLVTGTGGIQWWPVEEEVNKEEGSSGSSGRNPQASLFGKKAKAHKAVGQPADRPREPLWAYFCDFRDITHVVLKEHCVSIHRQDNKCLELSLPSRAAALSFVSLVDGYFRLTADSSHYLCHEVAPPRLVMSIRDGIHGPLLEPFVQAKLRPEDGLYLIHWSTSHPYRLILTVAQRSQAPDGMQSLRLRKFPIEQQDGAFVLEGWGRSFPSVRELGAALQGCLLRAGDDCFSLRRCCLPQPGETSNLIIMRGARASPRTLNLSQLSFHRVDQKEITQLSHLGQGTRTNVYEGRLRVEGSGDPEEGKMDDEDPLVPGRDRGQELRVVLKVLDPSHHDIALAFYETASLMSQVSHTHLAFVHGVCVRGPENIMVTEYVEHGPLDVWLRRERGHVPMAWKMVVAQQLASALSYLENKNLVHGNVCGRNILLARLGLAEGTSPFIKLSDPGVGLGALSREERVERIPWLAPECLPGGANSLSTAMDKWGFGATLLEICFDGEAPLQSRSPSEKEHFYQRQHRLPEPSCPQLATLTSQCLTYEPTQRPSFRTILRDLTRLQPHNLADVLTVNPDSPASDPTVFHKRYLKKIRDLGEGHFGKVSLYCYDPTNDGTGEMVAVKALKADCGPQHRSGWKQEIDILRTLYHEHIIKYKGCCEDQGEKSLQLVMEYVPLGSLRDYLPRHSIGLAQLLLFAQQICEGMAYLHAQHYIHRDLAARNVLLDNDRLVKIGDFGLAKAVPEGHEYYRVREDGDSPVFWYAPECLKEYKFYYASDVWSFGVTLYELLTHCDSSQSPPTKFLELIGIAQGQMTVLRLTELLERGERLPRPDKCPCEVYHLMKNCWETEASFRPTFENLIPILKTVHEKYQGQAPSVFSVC
Chain of RET (P07949 29-1114): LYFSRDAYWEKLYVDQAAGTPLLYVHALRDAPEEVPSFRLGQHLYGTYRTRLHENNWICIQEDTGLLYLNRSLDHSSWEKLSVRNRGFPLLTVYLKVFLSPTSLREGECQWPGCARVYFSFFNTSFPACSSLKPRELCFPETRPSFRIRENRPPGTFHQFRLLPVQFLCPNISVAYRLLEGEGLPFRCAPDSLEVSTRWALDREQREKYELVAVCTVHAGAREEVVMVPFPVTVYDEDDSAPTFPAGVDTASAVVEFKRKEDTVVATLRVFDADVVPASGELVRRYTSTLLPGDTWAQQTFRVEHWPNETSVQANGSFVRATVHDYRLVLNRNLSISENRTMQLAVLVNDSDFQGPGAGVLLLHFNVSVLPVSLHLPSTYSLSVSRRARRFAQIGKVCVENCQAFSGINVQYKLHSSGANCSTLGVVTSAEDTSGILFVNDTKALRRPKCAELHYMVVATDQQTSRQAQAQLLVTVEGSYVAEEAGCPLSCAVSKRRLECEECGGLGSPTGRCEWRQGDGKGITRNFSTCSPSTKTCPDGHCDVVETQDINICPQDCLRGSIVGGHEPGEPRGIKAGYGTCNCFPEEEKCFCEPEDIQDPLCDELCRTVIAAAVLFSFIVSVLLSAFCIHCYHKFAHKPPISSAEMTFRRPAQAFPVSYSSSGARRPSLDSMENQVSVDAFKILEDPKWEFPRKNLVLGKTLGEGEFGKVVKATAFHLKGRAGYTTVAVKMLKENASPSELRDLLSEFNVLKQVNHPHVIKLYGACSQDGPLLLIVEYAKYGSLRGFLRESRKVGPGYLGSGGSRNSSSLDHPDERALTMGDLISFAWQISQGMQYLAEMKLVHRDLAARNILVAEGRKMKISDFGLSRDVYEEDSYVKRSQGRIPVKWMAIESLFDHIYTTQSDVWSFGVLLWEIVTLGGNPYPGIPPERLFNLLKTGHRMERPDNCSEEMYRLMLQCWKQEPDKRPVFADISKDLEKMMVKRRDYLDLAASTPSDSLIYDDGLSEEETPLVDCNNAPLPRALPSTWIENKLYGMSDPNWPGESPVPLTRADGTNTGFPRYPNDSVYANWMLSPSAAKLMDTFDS

With `NC(=O)Nc1sc(-c2ccc(F)cc2)cc1C(N)=O` [Compound 3], the results for the inhibition at 0.5 µM in assay [1] and in [6] were 91% and 94%, respectively. Moreover, in [2], the “inhibition of catalytic activity of FLT3” value is “partial inhibition”. Moreover, the “inhibition of catalytic activity of JAK1/2” value in [3] is listed as “partial inhibition”. Besides, in assay [4], the “inhibition of catalytic activity of RET” value is reported as “partial inhibition”. Further, the “inhibition of catalytic activity of Tyk2” value in assay [5] is “partial inhibition”.
In the case of `COc1cc2ncnc(Nc3ccc(NC(=O)c4ccccc4)cc3)c2cc1OC` [Compound 1], the figures for the inhibition at 0.5 µM in assay [7], in [8] and in assay [6] were 75%, > 50% and 95%, respectively. For the same compound, the IC50 in assay [9] (dose-response, 10 μM ATP, read-out: IC50 against Ack1 in vitro) was 5 nM. Besides, the “inhibition of Ack1 autophosphorylation in cells” value in [10] is given as “did not reduce Ack1 autophosphorylation”. Moreover, the “kinase selectivity for Ack1 over other kinases” value in assay [11] is recorded as “unusually selective”. The “cellular efficacy against Aurora” value in [12] is recorded as “poor cellular efficacy”. The “in vitro activity against Aurora” value in [13] was “good in vitro activity”.
As for `CN[C@@H]1C[C@H]2O[C@@](C)([C@@H]1OC)n1c3ccccc3c3c4c(c5c6ccccc6n2c5c31)C(=O)NC4` [staurosporine, reference compound], the “inhibition of Ack1 in the screen” value in assay [6] is recorded as “inhibited Ack1 in addition to many other kinases”.
As to `COc1cc2c(Nc3ccc(NC(=O)c4ccccc4)cc3)ncnc2cc1OCCCN1CCOCC1` [Compound 1.1], the “in vitro Ack1 activity compared to compound 1” value in assay [9] (data not shown) is listed as “comparable in vitro activity to compound 1”. Further, the “inhibition of Ack1 autophosphorylation in cells” value in assay [10] was “potently inhibited Ack1 autophosphorylation in cells; also recorded: inhibits Ack1 in cells”.
